ChEMBL document CHEMBL1142996 (J Med Chem, 2007)
Non-standard residues stand in square brackets, D forms with d. Residues, ends and D or L forms follow the SMILES beside them. Phe(4-NH2) = Nc1ccc(C[C@H](N)C(=O)O)cc1

Molecular target: T1, Angiotensin II receptor (AT-1) type-1 (Rattus norvegicus, UniProt P29089+P25095)
T1 sequence (P29089 whole entry): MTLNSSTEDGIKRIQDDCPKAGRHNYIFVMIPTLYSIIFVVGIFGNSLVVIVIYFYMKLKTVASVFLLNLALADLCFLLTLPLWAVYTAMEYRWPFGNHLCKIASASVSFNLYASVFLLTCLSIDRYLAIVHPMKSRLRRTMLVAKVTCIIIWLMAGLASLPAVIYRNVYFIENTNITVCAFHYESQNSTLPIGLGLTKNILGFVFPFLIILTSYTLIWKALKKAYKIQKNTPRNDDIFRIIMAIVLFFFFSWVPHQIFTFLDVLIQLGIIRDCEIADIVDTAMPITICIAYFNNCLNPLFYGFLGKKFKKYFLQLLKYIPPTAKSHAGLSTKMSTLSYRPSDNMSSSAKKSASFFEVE
T1 sequence (P25095 whole entry): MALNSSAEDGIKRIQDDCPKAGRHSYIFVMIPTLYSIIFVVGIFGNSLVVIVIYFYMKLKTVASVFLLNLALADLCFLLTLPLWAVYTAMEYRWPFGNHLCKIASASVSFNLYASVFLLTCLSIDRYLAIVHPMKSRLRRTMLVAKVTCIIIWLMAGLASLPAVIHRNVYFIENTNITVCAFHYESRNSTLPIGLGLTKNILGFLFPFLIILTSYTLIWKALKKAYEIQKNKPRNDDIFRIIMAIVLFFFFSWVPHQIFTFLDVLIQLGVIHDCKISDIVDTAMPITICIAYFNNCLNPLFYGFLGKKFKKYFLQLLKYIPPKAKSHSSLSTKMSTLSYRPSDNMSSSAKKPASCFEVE
Assay: Displacement of [125I]Ang2 from AT1 receptor in rat liver membrane
Type: cell membranes

Row | Compound | Ki
1 | CC[C@@H](C)[C@H](NC(=O)c1cccc(Cc2cnc[nH]2)c1)C(=O)O | > 10 µM
2 | O=C(N[C@@H](Cc1ccccc1)C(=O)O)c1cccc(Cc2cnc[nH]2)c1 | > 10 µM
3 | CC[C@H](C)[C@H](NC(=O)[C@H](Cc1ccc(O)cc1)NC(=O)[C@@H](NC(=O)[C@H](CCCNC(=N)N)NC(=O)[C@@H](N)CC(=O)O)C(C)C)C(=O)N[C@@H](Cc1ccc(N)cc1)C(=O)N1CCC[C@H]1C(=O)N[C@@H](Cc1ccccc1)C(=O)O (H-DRVYI[Phe(4-NH2)]PF-OH) | > 10 µM
4 | CC[C@@H](C)[C@H](NC(=O)c1cccc(Cn2ccnc2)c1)C(=O)O | > 10 µM
5 | O=C(O)[C@H](Cc1ccccc1)NC(=O)[C@@H]1CCCN1C(=O)c1cccc(Cc2cnc[nH]2)c1 | > 10 µM
6 | CC[C@@H](C)[C@H](NC(=O)[C@@H]1CCCN1C(=O)c1cccc(Cn2ccnc2)c1)C(=O)O | > 10 µM
7 | O=C(O)[C@H](Cc1ccccc1)NC(=O)[C@@H]1CCCN1C(=O)c1cccc(Cn2ccnc2)c1 | > 10 µM
8 | O=C(N[C@@H](Cc1ccccc1)C(=O)O)c1cccc(Cn2ccnc2)c1 | > 10 µM

Results, then the compound that gave them:

Row | Ki | Compound
9 | > 10 µM | CC[C@@H](C)[C@H](NC(=O)[C@@H]1CCCN1C(=O)c1cccc(Cc2cnc[nH]2)c1)C(=O)O
10 | > 10 µM | CC[C@H](C)[C@H](NC(=O)[C@@H]1CCCN1C(=O)[C@@H](N)Cc1cnc[nH]1)C(=O)O (H-His-Pro-Ile-OH)
11 | 1.598 µM | N[C@@H](Cc1cnc[nH]1)C(=O)N1CCC[C@H]1C(=O)N[C@@H](Cc1ccccc1)C(=O)O (H-His-Pro-Phe-OH)
12 | > 10 µM | CC[C@H](C)[C@H](NC(=O)[C@@H]1CCCN1C(=O)[C@H](Cc1cnc[nH]1)NC(C)=O)C(=O)O (Ac-His-Pro-Ile-OH)
13 | > 10 µM | CC(=O)N[C@@H](Cc1cnc[nH]1)C(=O)N1CCC[C@H]1C(=O)N[C@@H](Cc1ccccc1)C(=O)O (Ac-His-Pro-Phe-OH)
